Test system: rainbow trout (Oncorhynchus mykiss)
Test: Contribution of tissues to fish body burden
Type: in vivo
Conditions: for Contribution of Blood to the fish's body burden / Contribution of Gills to the fish's body burden / Contribution of Liver to the fish's body burden / Contribution of Mucus to the fish's body burden / Contribution of Other tissue (all apart from blood, liver, gills and skin; muscle concentration assumed) to body burden / Contribution of Skin to the fish's body burden: fraction; for % contribution to body burden, Gills / % contribution to body burden, Mucus / % contribution to body burden, Liver / % contribution to body burden, Skin / % contribution to body burden, Muscle: mean across fish, Figure 1; for % contribution to body burden, Liver / % contribution to body burden, Skin / % contribution to body burden, Muscle: Q10, Q14 maximum estimates; for % contribution to body burden, Muscle: includes all tissues not specifically analyzed
Description: To calculate the quantity of the test chemical in the different tissues, the amount of each tissue in the fish was estimated and multiplied by the concentration in that tissue. The test chemical quantities in the different tissues were then summed to give the body burden in each fish. The total weight of the fish and the weight of the liver and gills were available from the dissection (Table S16). For skin and mucus, the estimated outer surface area of the fish was used. We note that the distinction between mucus and skin is an operational one determined by the extraction method; mucus can be viewed as a more readily extracted fraction of the test chemical residues at the fish surface. The volume of blood was taken as 0.0495 mL g^–1 fish.[30] The remaining tissue (difference between the weight of the whole fish and the weight of liver, gills, skin, and blood) was assumed to have the concentration measured in the muscle. The contribution of the different tissues to the body burden is given for each fish in Table S17, and the average contribution across all fish is plotted in Figure 1. All of the tissues, with the exception of blood, contribute at least 10% of the body burden for at least half of the test chemicals. There is no consistent negative correlation between the fraction of chemical associated with blood, muscle, and liver (tissues where the residue originates entirely from systemic uptake) and alkyl chain length (a measure of hydrophobicity). Thus, although adsorption to fish surfaces appears to play a significant role, its contribution to body burden cannot be simply predicted from surfactant hydrophobicity. In the following, we examine uptake in individual tissues.

CCCCCCCCCCCCCCCCN [P16, hexadecylamine]
Contribution of Blood to the fish's body burden (Fish #1): 0.013
Contribution of Gills to the fish's body burden (Fish #1): 0.62
Contribution of Liver to the fish's body burden (Fish #1): 0.11
Contribution of Mucus to the fish's body burden (Fish #1): 0.04
Contribution of Other tissue (all apart from blood, liver, gills and skin; muscle concentration assumed) to body burden (Fish #1): 0.14
Contribution of Skin to the fish's body burden (Fish #1): 0.08
Contribution of Blood to the fish's body burden (Fish #2): 0.011
Contribution of Gills to the fish's body burden (Fish #2): 0.57
Contribution of Liver to the fish's body burden (Fish #2): 0.14
Contribution of Mucus to the fish's body burden (Fish #2): 0.03
Contribution of Other tissue (all apart from blood, liver, gills and skin; muscle concentration assumed) to body burden (Fish #2): 0.13
Contribution of Skin to the fish's body burden (Fish #2): 0.12
Contribution of Blood to the fish's body burden (Fish #3): 0.012
Contribution of Liver to the fish's body burden (Fish #3): 0.12
Contribution of Mucus to the fish's body burden (Fish #3): 0.04
Contribution of Other tissue (all apart from blood, liver, gills and skin; muscle concentration assumed) to body burden (Fish #3): 0.15
Contribution of Skin to the fish's body burden (Fish #3): 0.10
Contribution of Blood to the fish's body burden (Fish #4): 0.010
Contribution of Gills to the fish's body burden (Fish #4): 0.50
Contribution of Liver to the fish's body burden (Fish #4): 0.15
Contribution of Mucus to the fish's body burden (Fish #4): 0.04
Contribution of Other tissue (all apart from blood, liver, gills and skin; muscle concentration assumed) to body burden (Fish #4): 0.18
Contribution of Skin to the fish's body burden (Fish #4): 0.12
Contribution of Blood to the fish's body burden (Fish #5): 0.008
Contribution of Gills to the fish's body burden (Fish #5): 0.65
Contribution of Liver to the fish's body burden (Fish #5): 0.08
Contribution of Mucus to the fish's body burden (Fish #5): 0.05
Contribution of Other tissue (all apart from blood, liver, gills and skin; muscle concentration assumed) to body burden (Fish #5): 0.11
Contribution of Skin to the fish's body burden (Fish #5): 0.10
Contribution of Blood to the fish's body burden (Fish #6): 0.016
Contribution of Gills to the fish's body burden (Fish #6): 0.58
Contribution of Liver to the fish's body burden (Fish #6): 0.11
Contribution of Mucus to the fish's body burden (Fish #6): 0.06
Contribution of Other tissue (all apart from blood, liver, gills and skin; muscle concentration assumed) to body burden (Fish #6): 0.11
Contribution of Skin to the fish's body burden (Fish #6): 0.13
Contribution of Blood to the fish's body burden (Mean): 0.012
Contribution of Gills to the fish's body burden (Mean): 0.58
Contribution of Liver to the fish's body burden (Mean): 0.12
Contribution of Mucus to the fish's body burden (Mean): 0.04
Contribution of Other tissue (all apart from blood, liver, gills and skin; muscle concentration assumed) to body burden (Mean): 0.13
Contribution of Skin to the fish's body burden (Mean): 0.11
Share of body burden present in gills and mucus (in vivo): at least 50%
% contribution to body burden, Gills: 58%
% contribution to body burden, Mucus: 4%
% contribution to body burden, Liver: 12%
% contribution to body burden, Skin: 11%
% contribution to body burden, Muscle: 13%

CCCCCCCCCN(C)C [T9, N,N-dimethylnonylamine]
Contribution of Blood to the fish's body burden (Fish #1): 0.045
Contribution of Gills to the fish's body burden (Fish #1): 0.11
Contribution of Liver to the fish's body burden (Fish #1): 0.08
Contribution of Mucus to the fish's body burden (Fish #1): 0.12
Contribution of Other tissue (all apart from blood, liver, gills and skin; muscle concentration assumed) to body burden (Fish #1): 0.35
Contribution of Skin to the fish's body burden (Fish #1): 0.30
Contribution of Blood to the fish's body burden (Fish #2): 0.059
Contribution of Gills to the fish's body burden (Fish #2): 0.14
Contribution of Liver to the fish's body burden (Fish #2): 0.08
Contribution of Mucus to the fish's body burden (Fish #2): 0.12
Contribution of Other tissue (all apart from blood, liver, gills and skin; muscle concentration assumed) to body burden (Fish #2): 0.39
Contribution of Skin to the fish's body burden (Fish #2): 0.22
Contribution of Blood to the fish's body burden (Fish #3): 0.075
Contribution of Liver to the fish's body burden (Fish #3): 0.11
Contribution of Mucus to the fish's body burden (Fish #3): 0.09
Contribution of Other tissue (all apart from blood, liver, gills and skin; muscle concentration assumed) to body burden (Fish #3): 0.43
Contribution of Skin to the fish's body burden (Fish #3): 0.17
Contribution of Blood to the fish's body burden (Fish #4): 0.046
Contribution of Gills to the fish's body burden (Fish #4): 0.15
Contribution of Liver to the fish's body burden (Fish #4): 0.04
Contribution of Mucus to the fish's body burden (Fish #4): 0.14
Contribution of Other tissue (all apart from blood, liver, gills and skin; muscle concentration assumed) to body burden (Fish #4): 0.38
Contribution of Skin to the fish's body burden (Fish #4): 0.24
Contribution of Blood to the fish's body burden (Fish #5): 0.056
Contribution of Gills to the fish's body burden (Fish #5): 0.14
Contribution of Liver to the fish's body burden (Fish #5): 0.18
Contribution of Mucus to the fish's body burden (Fish #5): 0.08
Contribution of Other tissue (all apart from blood, liver, gills and skin; muscle concentration assumed) to body burden (Fish #5): 0.35
Contribution of Skin to the fish's body burden (Fish #5): 0.19
Contribution of Blood to the fish's body burden (Fish #6): 0.062
Contribution of Gills to the fish's body burden (Fish #6): 0.11
Contribution of Liver to the fish's body burden (Fish #6): 0.26
Contribution of Mucus to the fish's body burden (Fish #6): 0.08
Contribution of Other tissue (all apart from blood, liver, gills and skin; muscle concentration assumed) to body burden (Fish #6): 0.33
Contribution of Skin to the fish's body burden (Fish #6): 0.17
Contribution of Blood to the fish's body burden (Mean): 0.057
Contribution of Gills to the fish's body burden (Mean): 0.13
Contribution of Liver to the fish's body burden (Mean): 0.13
Contribution of Mucus to the fish's body burden (Mean): 0.10
Contribution of Other tissue (all apart from blood, liver, gills and skin; muscle concentration assumed) to body burden (Mean): 0.37
Contribution of Skin to the fish's body burden (Mean): 0.21
Share of body burden in interior tissues (blood, liver, and muscle) (in vivo): more than half
% contribution to body burden, Gills: 13%
% contribution to body burden, Mucus: 10%
% contribution to body burden, Liver: 13%
% contribution to body burden, Skin: 21%
% contribution to body burden, Muscle: 37%

CCCCCCCCCCCCCN(C)C [T13, N,N-dimethyltridecylamine]
Contribution of Blood to the fish's body burden (Fish #1): 0.038
Contribution of Gills to the fish's body burden (Fish #1): 0.28
Contribution of Liver to the fish's body burden (Fish #1): 0.05
Contribution of Mucus to the fish's body burden (Fish #1): 0.11
Contribution of Other tissue (all apart from blood, liver, gills and skin; muscle concentration assumed) to body burden (Fish #1): 0.36
Contribution of Skin to the fish's body burden (Fish #1): 0.17
Contribution of Blood to the fish's body burden (Fish #2): 0.031
Contribution of Gills to the fish's body burden (Fish #2): 0.26
Contribution of Liver to the fish's body burden (Fish #2): 0.09
Contribution of Mucus to the fish's body burden (Fish #2): 0.09
Contribution of Other tissue (all apart from blood, liver, gills and skin; muscle concentration assumed) to body burden (Fish #2): 0.29
Contribution of Skin to the fish's body burden (Fish #2): 0.24
Contribution of Blood to the fish's body burden (Fish #3): 0.038
Contribution of Liver to the fish's body burden (Fish #3): 0.11
Contribution of Mucus to the fish's body burden (Fish #3): 0.07
Contribution of Other tissue (all apart from blood, liver, gills and skin; muscle concentration assumed) to body burden (Fish #3): 0.31
Contribution of Skin to the fish's body burden (Fish #3): 0.22
Contribution of Blood to the fish's body burden (Fish #4): 0.023
Contribution of Gills to the fish's body burden (Fish #4): 0.22
Contribution of Liver to the fish's body burden (Fish #4): 0.21
Contribution of Mucus to the fish's body burden (Fish #4): 0.07
Contribution of Other tissue (all apart from blood, liver, gills and skin; muscle concentration assumed) to body burden (Fish #4): 0.32
Contribution of Skin to the fish's body burden (Fish #4): 0.17
Contribution of Blood to the fish's body burden (Fish #5): 0.025
Contribution of Gills to the fish's body burden (Fish #5): 0.30
Contribution of Liver to the fish's body burden (Fish #5): 0.07
Contribution of Mucus to the fish's body burden (Fish #5): 0.09
Contribution of Other tissue (all apart from blood, liver, gills and skin; muscle concentration assumed) to body burden (Fish #5): 0.31
Contribution of Skin to the fish's body burden (Fish #5): 0.21
Contribution of Blood to the fish's body burden (Fish #6): 0.042
Contribution of Gills to the fish's body burden (Fish #6): 0.24
Contribution of Liver to the fish's body burden (Fish #6): 0.06
Contribution of Mucus to the fish's body burden (Fish #6): 0.11
Contribution of Other tissue (all apart from blood, liver, gills and skin; muscle concentration assumed) to body burden (Fish #6): 0.29
Contribution of Skin to the fish's body burden (Fish #6): 0.25
Contribution of Blood to the fish's body burden (Mean): 0.033
Contribution of Gills to the fish's body burden (Mean): 0.26
Contribution of Liver to the fish's body burden (Mean): 0.10
Contribution of Mucus to the fish's body burden (Mean): 0.09
Contribution of Other tissue (all apart from blood, liver, gills and skin; muscle concentration assumed) to body burden (Mean): 0.31
Contribution of Skin to the fish's body burden (Mean): 0.21
% contribution to body burden, Gills: 26%
% contribution to body burden, Mucus: 9%
% contribution to body burden, Liver: 10%
% contribution to body burden, Skin: 21%
% contribution to body burden, Muscle: 31%

From PMC7343282, “Tissue Distribution of Several Series of Cationic Surfactants in Rainbow Trout (Oncorhynchus mykiss) Following Exposure via Water” (Environmental Science & Technology, 2020)
